Data published in US20230221321A1, “METHOD FOR IDENTIFYING COMPOUNDS USEFUL FOR THE TREATMENT OF CANCER” (UNIVERSITÉ PARIS-SACLAY, priority 2020, published 2023).
Structures can show the parent of a compound that is named as a salt. Where two headings read alike, the source gives them in different places.

B1: CHCHD4 protein (coiled-coil-helix-coiled-coil-helix domain containing 4) (other)
chain: MSYCRQEGKDRIIFVTKEDHETPSSAELVADDPNDPYEEHGLILPNGNINWNCPCLGGMASGPCGEQFKSAFSCFHYSTEEIKGSDCVDQFRAMQECMQKYPDLYPQEDEDEEEEREKKPAEQAEETAPIEATATKEEEGSS
notes: In SPR the protein was coupled covalently to a CM5 chip; also called MIA40; mitochondrial intermembrane space import and assembly protein 40

Legend:
AIF/CHCHD4 = target: T1, AIF/CHCHD4 (Homo sapiens, UniProt O95831); test: AlphaScreen (ALPHA) assay of the AIF103-613/CHCHD4 interaction; type: binding
T1 construct: The AIF103-613 protein (AIF protein fragment 103-613) and CHCHD4 protein were produced in BL21 + DE3 bacteria; made in house; host or cells: E. coli BL21 + DE3 (RIPL)
Excerpt: This method comprises the use: • of the AIF103-613 and CHCHD4 proteins previously produced; • of an AlphaScreen® kit (PerkinElmer) comprising donor beads and acceptor beads capable of conjugating to the AIF and CHCHD4 proteins; • of a positive control: the N27 peptide (corresponding to the 27 amino acids of the N-ter end of the CHCHD4 protein, as described in Hangen et al., 2015); • of a negative control: 0.1% bovine serum albumin (BSA) solution in phosphate buffered saline (PBS); • of a library of compounds to be tested: the Prestwick chemical compound library (Prestwick Chemical Library®) .
The ALPHA assay was first of all carried out at high throughput, using 384-well white microplates (Greiner, reference 781075), using 25 µl of total volume per well. The proteins, the positive control and the beads were diluted in a 0.1% BSA/PBS solution. All the distributions were carried out with an electronic multipipet, then the plates were centrifuged (200 g, 1 min). The plates were hermetically closed and incubated in the dark in a room at 23° C.
A library of 1280 small molecules, supplied by Prestwick Chemicals (Prestwick Chemical Library®) was screened. This library comprises compounds with various chemical and pharmacological properties, which are already approved by the health authorities, such as the FDA (Food and Drug Administration) or the EMEA (European Medicines Evaluation Agency). Each compound of the library is diluted in a 0.1% DMSO solution and used at a concentration of 10 µM. First of all, 5 µl of compound at […], of N27 at 3 µM (positive control) or of 0.1% BSA/PBS (negative control) were added to the wells. Secondly, 5 µl of AIF103-613 proteins were incubated with the compounds for 20 min before the addition of 5 µl of CHCHD4 for 2 h. Thirdly, 10 µl of a mixture of donor beads and acceptor beads at […] were incubated for 3 h. The analysis of the results was carried out by means of an EnSpire® multimode plate reader (PerkinElmer).
For each 384-well plate, 16 wells correspond to the positive control and 16 wells correspond to the negative control. The positive control corresponds to the measurement of the interaction of the AIF103-613 and CHCHD4 proteins in the presence of the N27 peptide (equivalent to the minimal signal). The negative control corresponds to the measurement of the interaction of the AIF103-613 and CHCHD4 proteins in the presence of the buffer (0.1% BSA/PBS) (equivalent to the maximum signal).
Following the high-throughput screening, the compounds are selected if the signal obtained in the presence of the compound is less than the following threshold TH:
For each compound previously selected, the ALPHA assay is repeated manually using another batch of powder of the compounds.
Each compound is tested at 10 µM and 30 µM due to the Hook effect particular to the ALPHAscreen technology and in order to select the compounds giving a signal located in the ascending part of the Hook bell and therefore active at low dose in a drug development perspective.
The compound is selected if: • the signal obtained in the presence of the compound is less than the threshold TH as described above; and • the signal obtained at 30 µM is less than the signal obtained at 10 µM.
In addition, for each compound thus selected, the dose-effect relationship of the compound is determined. This makes it possible to determine the median inhibitory concentration (IC50) of said compound.

[1] = system: A549 non-small-cell lung cancer cells; test: Cytotoxicity by lactate dehydrogenase (LDH) release in A549 cells; type: cell-based, human; details: A549, 3 h treatment; lowest dose tested for which a toxicity greater than 20% was measured
Procedure: The effect of the compounds on the metabolism of a non-small-cell lung cancer cell line (A549) was tested using the Seahorse technology (XFe96, Agilent) and the cell death was evaluated by measuring the release of lactate dehydrogenase (LDH, Promega). The cells seeded into 96-well microplates (20 000 cells/well) were treated with the compounds as a dose response (0.03; 0.1; 0.3; 1; 3; 10 µM) for 3 h in serum-free DMEM medium and then mitochondrial respiration (OXPHOS) and glycolysis were measured in real time. At the end of the experiment, the culture supernatant was removed in order to analyze the cell death, and the number of cells was determined by counting, after labelling the cells with DAPI, using a fluorescence microscope (Zeiss). The number of cells per well at the end of the experiment was then used to normalize the results obtained by Seahorse.
The compound concentration indicated in the “toxicity” column represents the lowest dose tested for which a toxicity greater than 20% was measured.

AIF103-613/CHCHD4 = target: T2, AIF103-613/CHCHD4 (Homo sapiens, UniProt O95831); test: Surface plasmon resonance (SPR, Biacore) assay of the AIF/CHCHD4 interaction; type: binding; details: compound preincubated 20 min with AIF, injected onto immobilized CHCHD4; criterion at least 50% of the inhibition obtained with N27 peptide
T2 construct: The AIF103-613 protein (AIF protein fragment 103-613) and CHCHD4 protein were produced in BL21 + DE3 bacteria; made in house; host or cells: E. coli BL21 + DE3 (RIPL)
Procedure: FIG. 3: SPR analysis of the compounds identified by Alphascreen. (A) SPR validation of thioridazine and of mitoxantrone, by means of the […], as inhibitors of the AIF103-613/CHCHD4 interaction. The compounds at 10 µM were incubated for 20 min with AIF in DPBS at pH 7.4 at ambient temperature. Then, the mixture was then injected for 3 minutes at a rate of 30 µl per minute onto the CHCHD4 protein. The N27 peptide at 3 µM was used as a […]. (B) Surface plasmon resonance (SPR) sensorgrams, making it possible to follow the binding of AIF103-613 to CHCHD4 in the presence of thioridazine hydrochloride or of mitoxantrone dihydrochloride. The thioridazine hydrochloride and the mitoxantrone dihydrochloride were tested at increasing concentrations ranging from 0.5 µM to 50 µM.
Some of the compounds identified by means of the Alpha assay as described above were tested by surface plasmon resonance (Biacore™ T100, GE Healthcare Life Sciences). The CHCHD4 protein was immobilized covalently on a dextran matrix comprising COOH functional carboxyl groups (Series S CM5® sensor chip, GE Healthcare Life Sciences, 29149603). […]
The sensorgrams were analyzed using the BIAevaluation software (Version 2.0.4).
The inhibition of the interaction of the AIF and CHCHD4 proteins by thioridazine and mitoxantrone was analyzed by means of a surface plasmon resonance assay (cf. FIG. 3). […]

[2] = target: T3, AIF103-613 protein (AIF protein fragment 103-613) (human, UniProt O95831 103-613); test: AlphaScreen cross-titration
T3 construct: also called apoptosis-inducing factor

[3] = obtained manually using the Alphascreen assay, read-out: IC50 AIF/CHCHD4

T1 sequence (O95831 103-613 limits assumed): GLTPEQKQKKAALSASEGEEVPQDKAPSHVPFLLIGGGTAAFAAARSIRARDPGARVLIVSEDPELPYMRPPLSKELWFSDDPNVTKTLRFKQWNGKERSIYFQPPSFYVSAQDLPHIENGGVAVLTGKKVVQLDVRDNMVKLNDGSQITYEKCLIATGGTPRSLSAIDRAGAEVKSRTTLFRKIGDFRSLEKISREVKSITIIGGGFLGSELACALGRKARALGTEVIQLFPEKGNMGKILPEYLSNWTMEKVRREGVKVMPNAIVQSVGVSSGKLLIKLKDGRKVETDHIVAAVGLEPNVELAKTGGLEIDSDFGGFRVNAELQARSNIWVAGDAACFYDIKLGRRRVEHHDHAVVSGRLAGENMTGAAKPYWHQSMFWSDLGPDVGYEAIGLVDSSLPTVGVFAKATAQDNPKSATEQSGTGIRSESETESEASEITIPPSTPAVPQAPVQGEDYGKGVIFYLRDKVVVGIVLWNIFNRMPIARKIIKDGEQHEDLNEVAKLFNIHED
T2 sequence (O95831 103-613 limits assumed): as above
T3 sequence (O95831 103-613): as the sequence (O95831 103-613 limits assumed) above

| Molecule | IC50 (AIF/CHCHD4; [3]) [µM] | Cellular toxicity [1] [µM] | inhibition of the interaction between the AIF and CHCHD4 proteins (SPR) (AIF103-613/CHCHD4) | IC50 (AIF/CHCHD4) [µM] | binding result [2] |
| --- | --- | --- | --- | --- | --- |
| Bromocriptine mesylate | 4.57 | 3 |  |  |  |
| CO[C@H]1/C=C/O[C@@]2(C)Oc3c(C)c(O)c4c(O)c(c(/C=N/N5CCN(C6CCCC6)CC5)c(O)c4c3C2=O)NC(=O)/C(C)=C\C=C\[C@H](C)[C@H](O)[C@@H](C)[C@@H](O)[C@@H](C)[C@H](OC(C)=O)[C@@H]1C [Rifapentine] | 4.8 | 10 |  |  |  |
| CSc1ccc2c(c1)N(CCC1CCCCN1C)c1ccccc1S2 (stereo not shown) [Thioridazine hydrochloride] | 24 | 1 | capable of inhibiting the interaction |  |  |
| Nisoldipine | 12 |  |  |  |  |
| CCN(CC)C(=S)SSC(=S)N(CC)CC [Disulfiram] | 0.415 | 3 |  |  |  |
| O=C1OC2(c3cc(Br)c(O)cc3Oc3c2cc(Br)c(O)[c]3[Hg][OH])c2ccccc21 (stereo not shown) [Merbromine] |  |  |  | 0.169 |  |
| COC(=O)C1=C(C)NC(C)=C(C(=O)OC2CCCN(Cc3ccccc3)C2)[C@@H]1c1cccc([N+](=O)[O-])c1 (stereo partly shown) [Benidipine hydrochloride] | 8 | 10 |  |  |  |
| COc1cc(-c2ccc(N=Nc3ccc4c(S(=O)(=O)O)cc(S(=O)(=O)O)c(N)c4c3O)c(OC)c2)ccc1N=Nc1ccc2c(S(=O)(=O)O)cc(S(=O)(=O)O)c(N)c2c1O [Chicago sky blue 6B] | 1.44 |  |  |  |  |
| CCSc1ccc2c(c1)N(CCCN1CCN(C)CC1)c1ccccc1S2.O=C(O)CC(O)C(=O)O.O=C(O)CC(O)C(=O)O [Thiethylperazine dimalate] | 10.6 | 10 |  |  |  |
| Mitoxantrone dihydrochloride | 1.27 | 3 | capable of inhibiting the interaction |  |  |
| NCCNCCNCCNCCN [Tetraethylenepentamine pentahydrochloride] | 9 | 10 |  |  |  |
| B1 |  |  |  |  | binds |
